Reference: patent US5837698A, “Steroid nitrite and nitrate ester derivatives useful as anti-inflammatory drugs” (G. D. Searle & Co., priority 1996, dated 1998)

Tests used:
[1] = system: rat aortic ring smooth muscle; assay: In vitro smooth muscle relaxant activity assay (rat aortic ring) in the presence of Cys and L-NAME; format: cell-based; conditions: for EC50: rat aortic rings precontracted with phenylephrine (0.3 uM), in the presence of cysteine and L-NAME, read-out: Relaxation, EC50
Description: The rat aortic ring assay was utilized as a bioassay to measure the relaxant activity. The rings were precontracted with phenylephrine (0.3 uM) and subsequently compounds were added to the tissue bath in the presence of cysteine (Cys) and N^G -L-nitroarginine methyl ester (L-NAME): A.In vitro smooth muscle relaxant activity assay in the presence of Cys and L-NAME: […]

[2] = system: prostaglandin E2 (PGE2) synthesis in Human fetal fibroblast cells; assay: In vitro inhibition of prostaglandin E2 (PGE2) synthesis assay; format: cell-based; conditions: IL-1 for 16 hours, compound 10 uM given with IL-1, ELISA, Basal 0.6, IL-1 alone 9.4
Description: B. In vitro inhibiton of prostaglandin E2 (PGE2) synthesis assay: Human fetal fibroblast cells were treated with IL-1 for 16 hours and prostaglandin E2 was measured by an ELISA. Compounds were given at the time of addition of IL-1. This assay provides an in vitro assessment of the compound to block the induction of the proinflammatory agent prostaglandin E2 (PGE2): […]

For `CCC(=O)OCC(=O)[C@@]1(OC(=O)CC)[C@@H](C)C[C@H]2[C@@H]3CCC4=CC(=O)C=C[C@]4(C)[C@@]3(Cl)[C@@H](O)C[C@@]21C` [Beclomethasone-dipropionate, reference compound], the “smooth muscle relaxant activity (in words)” value ([1]; rat aortic ring, precontracted with phenylephrine, Cys and L-NAME) was “did not show any effect” and the EC50 [1] was 100 µM.

Compound `C[C@@H]1C[C@H]2[C@@H]3CCC4=CC(=O)C=C[C@]4(C)[C@@]3(F)[C@@H](O)C[C@]2(C)[C@@]1(O)C(=O)CO` [Dexamethasone, reference compound] has a PGE2 [2] of 0.6 ng.

In the case of `CCC(=O)OCC(=O)[C@@]1(OC(=O)CC)[C@@H](C)C[C@H]2[C@@H]3CCC4=CC(=O)C=C[C@]4(C)[C@@]3(Cl)[C@@H](OC(=O)CCC(=O)O[C@H]3CO[C@H]4[C@@H]3OC[C@H]4O[N+](=O)[O-])C[C@@]21C` [Example 1], the EC50 [1] is reported as over 10 µM and the PGE2 [2] is reported as 0.5 ng.

Work on `C[C@]12C=CC(=O)C=C1CC[C@@H]1[C@@H]2[C@@H](O)C[C@@]2(C)[C@H]1CC[C@]2(O)C(=O)COC(=O)CCC(=O)O[C@H]1CO[C@H]2[C@@H]1OC[C@H]2O[N+](=O)[O-]` [Example 21] yielded an EC50 [1] of 3 µM and a PGE2 [2] of 0.4 ng.
